Usually IC50 stands for the concentration that gives 50% inhibition. Read a low IC50 as higher potency. By EC50 is commonly meant the concentration that produces a half-maximal response.

The record followed here is patent US20250066325A1, “DIRECTED DEGRON MOLECULES AND APPLICATIONS THEREOF” (The Brigham and Women's Hospital, Inc., priority 2021, published 2025).

Entries after “also recorded” stand apart in the source; their conditions may differ.

Type in all cases: cell-based
The target in one assay is T1, ZFP91 (Homo sapiens, UniProt Q96JP5+Q96SW2).
T1 construct: Immunoblots for endogenous ZF proteins ZFP91 and IKZF3 in MM1.S cells; endogenous in cells; host or cells: JURKAT, MM1.S, SU-DHL-1, H2228
The assay is described as follows: Immunoblot of endogenous ZF protein ZFP91. The settings on record: for degradation potency for ZFP91 compared with pomalidomide (immunoblot): MM1.S cells; for off-target degradation of endogenous ZFP91 (immunoblot): dose-dependent. As to the method:
(§1) Western blot analysis. Lysates of cells treated with different compounds were collected with ice-cold M-PER™ Mammalian Protein Extraction Reagent (ThermoFisher Scientific, 78501) with freshly added phosphatase (Sigma-Aldrich, 04906837001) and protease (Sigma-Aldrich, 04693124001) inhibitors following the manufacturer's instructions. Next, 20-50 μg of proteins were fractionated with NuPAGE™ 4-12% Bis-Tris gels (ThermoFisher Scientific, NP0335BOX) then transferred onto nitrocellulose membranes using iBot™ Transfer Stacks (ThermoFisher Scientific, IB23002) following the manufacturer's instructions. Membranes were then stained with primary antibodies in 1:1000 dilutions and secondary fluorescent antibodies in 1:3000 dilutions using iBind™ Flex Fluorescent Detection Solution Kit (ThermoFisher Scientific, SLF2019) following the manufacturer's instructions.
(§2) Primary antibodies used in this study include ZFP91 (Bethyl Laboratories, A303-245A), IKZF3/Aiolos (D1C1E) (Cell Signaling, 15103S), CRBN (D8H3S) (Cell Signaling, 71810S), ALK(D5F3) XP (Cell Signaling, 3633S), phospho-ALK (Tyr1507) (D6F1V) (Cell Signaling, 14678S), β-actin (8H10D10) Mouse mAb (Cell Signaling, 3700S). Fluorescent secondary antibodies used in this study include IRDye 680RD goat anti-mouse IgG (LI-COR Biosciences, 926-68070) and IRDye 800CW goat anti-rabbit IgG (LI-COR Biosciences, 926-32211). Western blot detection was performed using an Odyssey CLx Imaging System (LI-COR Biosciences). Quantification of the relative area and density values of western blot bands were carried out using ImageJ v2.1.0 following the ImageJ User Guide for gel analysis (https://imagej.nih.gov/ij/docs/guide/). Quantified values were normalized by values for loading controls such as β-actin. For phospho NPM-ALK, quantified values were normalized by the values for total ALK.
(In general: In western blotting, separated proteins are transferred to a membrane and probed.)

A further assay deals with T2, IKZF3 (Homo sapiens, UniProt Q96SW2+Q9UKT9).
T2 construct: Immunoblots for endogenous ZF proteins ZFP91 and IKZF3 in MM1.S cells; endogenous in cells; host or cells: JURKAT, MM1.S
The assay is described as follows: Immunoblot of endogenous ZF protein IKZF3. The settings on record: for degradation potency for IKZF3 compared with pomalidomide (immunoblot): MM1.S cells; for off-target degradation of endogenous IKZF3 (immunoblot): JURKAT cells, dose-dependent. As to the method: as §1, §2

Assay [1] deals with ZF degrons fused to eGFP in U2OS cells. Nature of the assay: Automated high-content imaging assay of ZF degron-tagged eGFP degradation (off-target profiling). As to conditions: U2OS ZF degron reporter cells, 24 hours, doses 4.3 nM to 20 μM. An excerpt:
Development and validation of an off-target profiling platform for PROTACs. To profile the ZF degradation propensity of pomalidomide and its analogs, an automated high-content imaging assay was first developed (FIG. 1A). For this platform, 23-amino acid ZF degrons of 12 ZF proteins were selected that are reportedly degraded by pomalidomide and two ZFs that are not.^2 These ZF degrons were inserted into a lentiviral degradation reporter vector (cilantro 2) to compare the fluorescence of ZF-tagged enhanced green fluorescent protein (eGFP) to untagged mCherry with high-content imaging (FIG. 1A). With this assay, wherein compounds are scanned against the 14 stable cell lines containing our tagged ZF-proteins, dose-dependent degradation of ZF degron-tagged eGFP by pomalidomide was reliably detected with a robust readout (Z-prime value of 0.8) (FIG. 5). […] Unlike mass spectrometry, this reporter-based method is not limited by cell-type-specific expression levels of analyte proteins nor by the accessibility to ZFs in the context of full-length proteins that are engaged in protein complexes. […]
The fluorescence intensity of eGFP was normalized to that of mCherry for every cell. […] The degradation score was then calculated by taking the sum of the GFP degradation fractions across all doses for each compound. […]

The next assay relates to SU-DH-L1 cells. The assay is described as follows: Cell viability assay (CellTiter-Glo). As to conditions: for IC50: SU-DHL-1, SU-DH-L1 cells, 24 hours. As to the method:
Cell Viability Assay. SU-DH-L1 cells were seeded in 30 μl of 8000 cells per well in 384-well plates pre-printed with 10 mM of the stock compounds in varying volumes using a Tecan D300e Digital Dispenser (Tecan). After 24 hours, cell viability was determined using a CellTiter-Glo Luminescent Cell Viability Assay (Promega, G7571) following the manufacturer's instructions. Dose-response curve fitting and IC50 quantification were determined with four parameter nonlinear regression analysis using GraphPad Prism v8.4.2.
For orientation: ATP-based viability assays read luminescence as a measure of living cells.

The next assay relates to MOLT4 and KELLY cells. The assay is described as follows: Global proteomic studies (TMT) of IMiDs in ZF protein-relevant cell lines. The settings on record: 1 μM. The procedure:
Global proteomic studies. To validate the results from the imagining-based experiments, Applicant performed proteomics studies in two ZF protein-relevant cell lines (MOLT4 and KELLY).^26 Briefly, Applicant treated the ZF protein-relevant cells (MOLT4 and KELLY) with IMiDs or PROTACs at 1 μM concentrations, and the protein lysates were prepared from the cells were digested, and labeled using a TMT-based quantification kit. Labeled samples were subjected to LC/MS on an Orbitrap Eclipse Tribrid mass spectrometer. Applicant used the Proteome Discoverer software pipeline and identified the final hits by searching against the uniport database.

Setting [2] is: listed as Thalidomide analog with amino group on C5 position.

T2 sequence (Q9UKT9 whole entry): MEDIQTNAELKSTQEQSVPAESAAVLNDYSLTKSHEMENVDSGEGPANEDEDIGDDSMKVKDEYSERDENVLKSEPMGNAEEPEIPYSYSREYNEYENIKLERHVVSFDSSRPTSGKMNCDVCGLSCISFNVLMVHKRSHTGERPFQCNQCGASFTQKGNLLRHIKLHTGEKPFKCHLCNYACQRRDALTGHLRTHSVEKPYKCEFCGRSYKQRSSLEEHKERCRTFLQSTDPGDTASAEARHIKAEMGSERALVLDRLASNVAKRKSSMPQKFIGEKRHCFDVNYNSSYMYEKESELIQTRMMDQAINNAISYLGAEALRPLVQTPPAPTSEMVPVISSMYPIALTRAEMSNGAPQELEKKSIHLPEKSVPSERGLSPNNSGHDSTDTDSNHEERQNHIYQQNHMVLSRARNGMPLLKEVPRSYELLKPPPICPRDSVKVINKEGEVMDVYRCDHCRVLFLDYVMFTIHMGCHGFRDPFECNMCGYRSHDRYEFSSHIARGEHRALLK
T2 sequence (Q96SW2 whole entry): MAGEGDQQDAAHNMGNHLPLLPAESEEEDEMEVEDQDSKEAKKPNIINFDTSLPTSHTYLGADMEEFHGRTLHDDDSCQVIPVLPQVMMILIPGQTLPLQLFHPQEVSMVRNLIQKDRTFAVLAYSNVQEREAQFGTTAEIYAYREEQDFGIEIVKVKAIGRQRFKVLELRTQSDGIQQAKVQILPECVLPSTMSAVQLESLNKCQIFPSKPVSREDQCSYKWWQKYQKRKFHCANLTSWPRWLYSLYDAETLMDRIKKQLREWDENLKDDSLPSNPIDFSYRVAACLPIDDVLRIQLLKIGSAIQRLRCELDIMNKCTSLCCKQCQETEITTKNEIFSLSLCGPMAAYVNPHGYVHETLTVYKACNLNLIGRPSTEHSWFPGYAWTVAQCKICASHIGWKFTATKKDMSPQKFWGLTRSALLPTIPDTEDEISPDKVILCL
T2 sequence (Q16531 2-1140 partner limits assumed): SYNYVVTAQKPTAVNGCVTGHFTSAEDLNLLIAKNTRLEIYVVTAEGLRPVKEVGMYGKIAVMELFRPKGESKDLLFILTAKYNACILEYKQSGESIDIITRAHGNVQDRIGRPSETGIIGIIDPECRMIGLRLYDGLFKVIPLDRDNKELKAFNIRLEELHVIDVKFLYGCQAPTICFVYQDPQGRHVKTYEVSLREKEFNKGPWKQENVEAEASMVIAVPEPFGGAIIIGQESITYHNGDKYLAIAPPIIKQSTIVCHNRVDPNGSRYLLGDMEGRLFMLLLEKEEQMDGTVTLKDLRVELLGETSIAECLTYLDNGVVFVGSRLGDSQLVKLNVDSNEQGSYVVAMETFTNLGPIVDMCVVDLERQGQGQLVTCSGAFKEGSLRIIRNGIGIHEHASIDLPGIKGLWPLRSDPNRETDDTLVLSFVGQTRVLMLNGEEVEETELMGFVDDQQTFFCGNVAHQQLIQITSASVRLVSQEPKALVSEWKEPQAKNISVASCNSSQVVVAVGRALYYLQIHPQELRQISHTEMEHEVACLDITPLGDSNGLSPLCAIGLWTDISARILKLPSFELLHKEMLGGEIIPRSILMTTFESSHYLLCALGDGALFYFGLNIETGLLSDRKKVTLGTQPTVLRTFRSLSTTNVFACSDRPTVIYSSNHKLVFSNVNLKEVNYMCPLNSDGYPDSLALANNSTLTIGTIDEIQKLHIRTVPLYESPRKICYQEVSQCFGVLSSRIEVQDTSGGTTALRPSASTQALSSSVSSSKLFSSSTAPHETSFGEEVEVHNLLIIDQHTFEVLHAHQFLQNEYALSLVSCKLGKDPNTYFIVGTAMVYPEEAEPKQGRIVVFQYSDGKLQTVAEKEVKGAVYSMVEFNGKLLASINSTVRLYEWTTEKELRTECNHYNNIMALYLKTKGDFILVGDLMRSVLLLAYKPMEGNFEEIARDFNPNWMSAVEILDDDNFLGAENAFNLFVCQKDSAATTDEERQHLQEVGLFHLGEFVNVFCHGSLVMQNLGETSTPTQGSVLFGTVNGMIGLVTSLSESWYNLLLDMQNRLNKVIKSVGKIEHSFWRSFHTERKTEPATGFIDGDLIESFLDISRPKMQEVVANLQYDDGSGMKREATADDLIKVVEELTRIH
T1 sequence (Q96JP5 2-570 limits assumed): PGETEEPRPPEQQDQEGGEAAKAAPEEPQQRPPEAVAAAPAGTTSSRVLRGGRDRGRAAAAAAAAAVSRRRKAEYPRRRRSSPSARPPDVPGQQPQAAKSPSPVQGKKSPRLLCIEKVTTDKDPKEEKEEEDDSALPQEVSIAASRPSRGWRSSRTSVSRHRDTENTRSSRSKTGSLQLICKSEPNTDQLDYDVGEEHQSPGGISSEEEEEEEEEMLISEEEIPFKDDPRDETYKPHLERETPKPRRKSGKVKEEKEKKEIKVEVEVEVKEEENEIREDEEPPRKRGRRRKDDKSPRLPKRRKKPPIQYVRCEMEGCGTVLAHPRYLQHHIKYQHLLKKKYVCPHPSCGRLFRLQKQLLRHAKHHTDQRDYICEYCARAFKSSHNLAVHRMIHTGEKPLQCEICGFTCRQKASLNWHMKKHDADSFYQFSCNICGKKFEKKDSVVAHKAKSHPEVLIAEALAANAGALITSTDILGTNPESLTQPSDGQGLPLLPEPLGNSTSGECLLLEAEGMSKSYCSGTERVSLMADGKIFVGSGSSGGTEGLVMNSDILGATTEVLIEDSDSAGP
T1 sequence (Q96SW2 whole entry): as the sequence (Q96SW2 whole entry) above
T1 sequence (Q16531 2-1140 partner limits assumed): as the sequence (Q16531 2-1140 partner limits assumed) above

In the case of `Nc1ccc2c(c1)C(=O)N(C1CCC(=O)NC1=O)C2=O` (stereo not shown) [5-aminothalidomide], the “degradation potency for ZFP91 compared with pomalidomide (immunoblot)” value is given as “decrease in overall degradation potency” on ZFP91 and “decrease in the potency” at ZFP91 (setting [2]). Also, the results for the “degradation potency for IKZF3 compared with pomalidomide (immunoblot)” value on IKZF3 and at IKZF3 (setting [2]) were “decrease in overall degradation potency” and “decrease in the potency”, respectively.

Take `Cc1cc(Nc2ncc(Cl)c(Nc3ccccc3S(=O)(=O)C(C)C)n2)c(OC(C)C)cc1C1CCN(CC(=O)NCCNc2cccc3c2C(=O)N(C2CCC(=O)NC2=O)C3=O)CC1` (stereo not shown) [MS4078]: in assay [1], the “off-target degradation of ZF degron-tagged eGFP” value was “high level of off-target ZF degradation; also recorded: ZNF517, ZNF654, ZNF276, ZNF653, and PATZ1”. The “off-target degradation of endogenous ZFP91 (immunoblot)” value at ZFP91 (JURKAT cells) is listed as “off-target degradation”; at ZFP91 (SU-DHL-1 and H2228 cell lines) it was “off-target degradation”. The “off-target degradation of endogenous IKZF3 (immunoblot)” value on IKZF3 is “off-target degradation”. In the assay with SU-DH-L1 cells (Homo sapiens, Example 1), this compound came in with an IC50 of 0.195 µM. Besides, a half-maximal response with SU-DH-L1 cells (Homo sapiens, SU-DHL-1 cells, Example 3 numbering) (EC50) required 0.195 µM. Also, the “fold lowering of potency relative to ceritinib” value in the assay on SU-DH-L1 cells (IC50 ratio, Example 1) came out at 2.8 fold.

With `Nc1cccc2c1C(=O)N(C1CCC(=O)NC1=O)C2=O` (stereo not shown) [Pomalidomide], the “off-target degradation of ZF degron-tagged eGFP” value in assay [1] was “degraded all 12 ZF degrons”. In addition, the “off-target profile in global proteomics” value with MOLT4 and KELLY cells was “exhibited the commonly reported off-targets”.

In turn, `Cc1cc(Nc2ncc(Cl)c(Nc3ccccc3S(=O)(=O)C(C)C)n2)c(OC(C)C)cc1C1CCNCC1` [ceritinib] had an IC50 in the assay with SU-DH-L1 cells (Homo sapiens, Example 1) of 0.0693 µM.

Turning to `CC[C@H](C(=O)N1CCCC[C@H]1C(=O)O[C@H](CCc1ccc(OC)c(OC)c1)c1ccccc1OCC(=O)NCCCCCCOc1cccc2c1C(=O)N(C1CCC(=O)NC1=O)C2=O)c1cc(OC)c(OC)c(OC)c1` (stereo partly shown) [dTAG-13], the “off-target degradation of endogenous ZFP91 (immunoblot)” value on ZFP91 (JURKAT cells) is on record as “off-target degradation”. For the same compound, on IKZF3, the “off-target degradation of endogenous IKZF3 (immunoblot)” value is “off-target degradation”.
